# In patent US7049116B2, “Engineered protein kinases which can utilize modified nucleotide triphosphate substrates” (Princeton University, priority 1997, dated 2006):
# pIC50: −log10 of the molar value. Entries after “also recorded” stand apart in the source; their conditions may differ.
# How the values were obtained:
# [1] = test system: GST-XD4 (V323A, I338A); conditions: 100 μM analog, 10 μM [γ-32P]ATP
# [2] = molecular target: T1, WT Fyn (Homo sapiens, UniProt P06241); conditions: published parent molecule; cited from earlier work
# T1 construct: GST; made in house; host or cells: E. coli DH5α (pGEX-KT)
# T1 sequence (P06241 1-534 isoform P06241-2): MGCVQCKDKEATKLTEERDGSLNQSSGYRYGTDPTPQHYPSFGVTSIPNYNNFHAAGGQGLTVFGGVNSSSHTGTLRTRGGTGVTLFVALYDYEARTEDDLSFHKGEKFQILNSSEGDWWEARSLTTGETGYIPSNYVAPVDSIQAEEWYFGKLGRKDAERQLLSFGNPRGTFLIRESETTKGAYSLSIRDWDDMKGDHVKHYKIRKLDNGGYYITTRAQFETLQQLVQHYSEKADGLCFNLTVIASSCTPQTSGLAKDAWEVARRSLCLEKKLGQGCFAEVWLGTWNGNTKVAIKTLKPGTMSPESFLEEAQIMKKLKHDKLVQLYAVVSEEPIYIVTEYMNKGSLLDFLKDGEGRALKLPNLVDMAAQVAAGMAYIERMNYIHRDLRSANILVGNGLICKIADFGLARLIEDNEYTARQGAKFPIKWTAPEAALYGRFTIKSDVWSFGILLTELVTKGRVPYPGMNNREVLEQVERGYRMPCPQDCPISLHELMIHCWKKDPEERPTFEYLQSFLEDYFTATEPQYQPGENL
# [3] = molecular target: T1, WT Fyn; assay: In vitro kinase inhibition assay; type: biochemical; set-up: inhibition of Fyn: dose or concentration left out as unconfirmed
# [4] = test system: tyrosine kinases of murine lymphocyte cell lysate (CF); assay: Screening of nucleotide analogs in murine lymphocyte lysate, anti-phosphotyrosine immunoblot; type: biochemical; conditions: 100 μM nucleotide triphosphate, 37° C., five minutes
# Description: To identify compounds that would not be accepted as substrates by any existing cellular kinases (53), Applicant screened a panel of synthetic A^*TP analogs in a murine lymphocyte lysate (CF) rich in protein tyrosine kinases (13).
# The assays were performed using spleenocytes (8-30 week old male and female C57/B6 mice from the Princeton University Animal Facility) which were isolated and washed in RPMI-1640 medium containing 5% Bovine Calf Serum (BCS), 1% Hepes and DNaseI (1 μg/ml). Red cells were lysed at 4° C. by treatment with 17 mM Tris ammonium chloride (pH 7.2). The cells were hypotonically lysed on ice for ten minutes in 1 mM Hepes (pH 7.4), 5 mM MgCl2, leupeptin (10 μg/ml), aprotinin (10 μg /ml) and 100 μM PMSF according to the method of Fukazawa et al. (51). After vortexing and centrifugation at 500 × g, the supernatant was collected. Cells were stored at 4° C. for twenty minutes to attenuate the basal protein phosphorylation level, after which the buffer was adjusted to 20 mM Hepes (pH 7.4), 10 mM MgCl2 and 1 mM NaF. Sodium vanadate (100 μM) was then added to inhibit the activity of phosphotyrosine phosphatases.
# Each nucleotide triphosphate was added to a final concentration of 100 μM to 5×10^6 cell equivalents and incubated at 37° C. for five minutes after which 4 × Laemmli gel loading buffer was added to the cell lysate to quench the reaction. Proteins were separated by 12.5% SDS-PAGE and transferred to Protran BA85 (Schleicher-Schuell). The blot was probed with the anti-phosphotyrosine monoclonal antibody 4G10 (Upstate Biotechnology) and the bound antibody was detected via enhanced chemiluminescence (Pierce) following treatment with HRP-coupled goat anti-mouse antibody (VWR catalog #710133) according to the manufacturer's instructions.
# The cell lysate used includes the tyrosine kinases Src, Fyn, Lck, Lyn, Yes, Fgr, Hck, Zap, Syk, Btk, Blk, and other tyrosine kinases present in B and T lymphocytes, macrophages, and follicular dendritic cells (13). Molecular size standards (in kilodaltons) arc indicated.
# [5] = molecular target: T2, I338G v-Src (Rous sarcoma virus subgroup A, UniProt P00524, DEL77-225/I338G); assay: biochemical
# T2 construct: made in house; host or cells: E. coli DH5α (pGEX-KT)
# [6] = molecular target: T3, GST-XD4 (V323A, I338A) (Rous sarcoma virus subgroup A, UniProt P00524, DEL77-225/I338A/V323A); assay: Autophosphorylation autoradiogram; type: biochemical; conditions: FIG. 5C lane 4
# T3 construct: contains an intact SH1 catalytic domain but lacks the non-catalytic regulatory SH3 and SH2 domains; made in house; host or cells: E. coli DH5α (pGEX-KT)
# Text: (§1) It is even more significant that the new substrate, [γ-^32P]
# [7] = molecular target: T4, GST-XD4 (Rous sarcoma virus subgroup A, UniProt P00524, DEL77-225); assay: Autophosphorylation autoradiogram; type: biochemical; conditions: GST-XD4, FIG. 5C lane 3
# T4 construct: contains an intact SH1 catalytic domain but lacks the non-catalytic regulatory SH3 and SH2 domains; made in house; host or cells: E. coli DH5α (pGEX-KT)
# Text: as §1
# [8] = test system: wild-type cellular kinases of murine lymphocyte lysates; assay: In vitro kinase reactions with radiolabeled nucleotide in murine lymphocyte lysates; type: biochemical; conditions: 100 μM radiolabeled nucleotide, 37° C., ten minutes
# [9] = molecular target: T5, GST-XD4 (I338G) (Rous sarcoma virus subgroup A, UniProt P00524, DEL77-225/I338G); assay: Autophosphorylation of single mutation v-Src mutants; type: biochemical; conditions: mutant with glycine at position 338
# T5 construct: made in house; host or cells: E. coli DH5α (pGEX-KT)
# Text: (§2) However, these had only single mutations, at position 338. These were again expressed as GST-XD4 fusion proteins.
# (§3) The panels on the right side of FIG. 7 tell an even more interesting story.
# [10] = molecular target: T6, GST-XD4 (I338S) (Rous sarcoma virus subgroup A, UniProt P00524, DEL77-225/I338S); assay: as above; type: biochemical; conditions: mutant with serine at position 338
# T6 construct: made in house
# Text: as §2, §3
# [11] = test system: GST-XD4 (V323A, I338A); type: biochemical, Rous sarcoma virus
# Description: (§4) Kinetic constants were determined by analysis of Lineweaver-Burk plots of the rate data (64). […] ATP (1000 cpm/pmol) or [γ-^32P] N^6(cyclopentyl)ATP (5000 cpm/pmol) as indicated.
# [12] = molecular target: T3, GST-XD4 (V323A, I338A); type: biochemical; conditions: GST-XD4 (V323A, I338A), 1 mM RR-Src, 37° C., pH 8.0
# Description: as §4
# [13] = molecular target: T4, GST-XD4; type: biochemical
# Description: as §4
# [14] = test system: PDGFR; conditions: cited from earlier work
# [15] = test system: B cell receptor (BCR) mediated phosphorylation cascade in murine spleen cells; assay: Murine B cell assay (B cell receptor mediated tyrosine phosphorylation); type: cell-based; conditions: 100 μM in […] DMSO, anti-IgM stimulated murine spleen cells
# Description: Splenic lymphocytes were isolated from 6-20 week old Balb/c or C57/B6 mice. The cells were washed out of the spleen into RPMI media containing 1 mg/ml DNase I and the red blood cells were lysed in 17 mM tris-ammonium chloride (pH 7.2). Approximately 4×10^6 cells were incubated at 37° C. for thirty minutes with 100 μM of (3g) or (2) in 1.1% DMSO. B cell stimulation was initiated by the addition of […] of goat anti-mouse IgM (Jackson ImmunoResearch) and subsequent incubation for five minutes at 37° C. The cells were isolated by centrifugation (13,000 rpm, two minutes) and lysed (lysis buffer: 1% Triton x-100, 50 mM Tris (pH 7.4), 2 mM EDTA, 150 mM NaCl, 100 mM PMSF, 2 mM sodium orthovanadate, 10 mg/ml leupeptin, 10 mg/ml apoprotin). The cellular debris was then pelleted at 13,000 rpm for fifteen minutes. Cellular proteins were separated by 10% polyacrylamide gel electrophoresis and transferred to a nitrocellulose membrane by Western blotting. Phosphotyrosine containing proteins were visualized by immunoblotting with anti-phosphotyrosine antibody (Upstate Biotechnology).
# [16] = molecular target: T7, GST-XD4 (I338A) (Rous sarcoma virus subgroup A, UniProt P00524, DEL77-225/I338A); assay: Autophosphorylation of single mutation v-Src mutants; type: biochemical; conditions: mutant with alanine at position 338
# T7 construct: made in house
# Text: as §2, §3
compound,measurement,setting,value
"O=P(O)(O)OP(=O)(O)OP(=O)(O)OC[C@H]1O[C@@H](n2cnc3c(NC4CCCCC4)ncnc32)[C@H](O)[C@@H]1O [Analog 11, N^6(cyclohexyl)ATP]","relative inhibition of GST-XD4 (V323A, I338A) catalyzed RR-Src phosphorylation",[1],almost as well as the wild-type kinase
"Cc1ccc(-c2nn(C(C)(C)C)c3ncnc(N)c23)cc1 [PPI, 4-amino-1-tert-butyl-3-(p-methylphenyl)pyrazolo(3,4-d)pyrimidine]",inhibition of Fyn (in words),[2],highly potent (low nM)
OCC1OC(n2cnc3c(NOC4CCCC4)ncnc32)C(O)C1O (stereo not shown) [N^6 cyclopentyloxyadenosine],inhibition of Fyn,[3]; concentrations up,no detectable in vitro inhibition
"O=P(O)(O)OP(=O)(O)OP(=O)(O)OC[C@H]1O[C@@H](n2cnc3c(NCc4ccccc4)ncnc32)[C@H](O)[C@@H]1O [Analog 5, N^6(benzyl)ATP]",level of protein tyrosine phosphorylation (ability to serve as cellular tyrosine kinase substrate),[4],little or no protein phosphorylation
same,"relative inhibition of GST-XD4 (V323A, I338A) catalyzed RR-Src phosphorylation",[1],almost as well as the wild-type kinase
"CCONc1ncnc2c1ncn2[C@@H]1O[C@H](COP(=O)(O)OP(=O)(O)OP(=O)(O)O)[C@@H](O)[C@H]1O [Analog 2, N^6(ethoxy)ATP]",level of protein tyrosine phosphorylation (ability to serve as cellular tyrosine kinase substrate),[4],some ability to serve as cellular tyrosine kinase substrates
"O=P(O)(O)OP(=O)(O)OP(=O)(O)OC[C@H]1O[C@@H](n2cnc3c(NOCc4ccccc4)ncnc32)[C@H](O)[C@@H]1O [Analog 6, N^6(benzyloxy)ATP]",level of protein tyrosine phosphorylation (ability to serve as cellular tyrosine kinase substrate),[4],little or no protein phosphorylation
"CC(C)(C)n1nc(-c2ccccc2)c2c(NCc3ccco3)ncnc21 [Analog 4d, 4-2′-furylmethylamino-1-tert-butyl-3-phenylpyrazolol[3,4-d]pyrimidine]",inhibition of WT Fyn (in words),[3],sufficiently orthogonal
same,inhibition of I338G v-Src (in words),[5],only poor to moderate inhibition
"CC(C)ONc1ncnc2c1ncn2[C@@H]1O[C@H](COP(=O)(O)OP(=O)(O)OP(=O)(O)O)[C@@H](O)[C@H]1O [Analog 4, N^6(i-propoxy)ATP]",level of protein tyrosine phosphorylation (ability to serve as cellular tyrosine kinase substrate),[4],little or no protein phosphorylation
"O=P(O)(O)OP(=O)(O)OP(=O)(O)OCC1OC(n2cnc3c(NC4CCCC4)ncnc32)C(O)C1O (stereo not shown) [Analog 8, N^6(cyclopentyl)ATP]",use as phosphodonor for autophosphorylation,[6],efficiently autophosphorylated
same,use as phosphodonor for autophosphorylation,[7],apparent complete inability
same,radiolabeled phosphoproteins in cell lysate,[8],no radiolabeled phosphoproteins
same,utilization as phosphate donor substrate (autophosphorylation),[9],better able to use N^6(cyclopentyl)ATP as substrate than is the mutant with alanine
same,utilization as phosphate donor substrate (autophosphorylation),[10],not able to utilize N6(cyclopentyl)ATP nearly as well as is the mutant with alanine
same,kcat/KM of mutant with orthogonal substrate relative to kcat/KM of wild-type kinase with ATP,[11]; lower than wild-type with ATP,50 fold
same,kcat,[12],0.00083 ± 0.00033 s⁻¹
same,level of protein tyrosine phosphorylation (ability to serve as cellular tyrosine kinase substrate),[4],slightly lower level of phosphorylation with wild-type kinases
same,"relative inhibition of GST-XD4 (V323A, I338A) catalyzed RR-Src phosphorylation",[1],almost as well as the wild-type kinase
same,phosphorylation of RR-Src peptide with the nucleotide as phosphate donor,[13]; wild-type GST-XD4,did not substantially phosphorylate
"CC(C)(C)n1nc(-c2ccccc2)c2c(NCc3ccccc3)ncnc21 [Analog 4e, 4-benzylamino-1-tert-buty-3-phenylpyrazolo[3,4-d]pyrimidine]",inhibition of WT Fyn (in words),[3],sufficiently orthogonal
same,inhibition of I338G v-Src (in words),[5],only poor to moderate inhibition
"O=P(O)(O)OP(=O)(O)OP(=O)(O)OC[C@H]1O[C@@H](n2cnc3c(NOC4CCCC4)ncnc32)[C@H](O)[C@@H]1O [Analog 9, N^6(cyclopentyloxy)ATP]","relative inhibition of GST-XD4 (V323A, I338A) catalyzed RR-Src phosphorylation",[1],almost as well as the wild-type kinase
"CC(=O)Nc1ncnc2c1ncn2[C@@H]1O[C@H](COP(=O)(O)OP(=O)(O)OP(=O)(O)O)[C@@H](O)[C@H]1O [Analog 3, N^6(acetyl)ATP]",level of protein tyrosine phosphorylation (ability to serve as cellular tyrosine kinase substrate),[4],some ability to serve as cellular tyrosine kinase substrates
"CC(C)(C)n1nc(-c2ccccc2)c2c(N)ncnc21 [(2), 4-amino-1-tert-butyl-3-phenylpyrazolo(3,4-d)pyrimidine, reference compound]",inhibition of WT Fyn (in words),[3],highly potent (low nM)
same,phosphotyrosine pattern of B cell stimulation,[15],significant reduction in tyrosine phosphorylation
"CC(C)(C)n1nc(-c2ccccc2)c2c(NCC3CCCC3)ncnc21 [Analog 4b, 4-cyclopentylmethylamino-1-tert-butyl-3-phenylpyrazolo[3,4-d]pyrimidine]",inhibition of WT Fyn (in words),[3],sufficiently orthogonal
same,inhibition of I338G v-Src (in words),[5],only poor to moderate inhibition
"Nc1ncnc2c1ncn2[C@@H]1O[C@H](COP(=O)(O)OP(=O)(O)OP(=O)(O)O)[C@@H](O)[C@H]1O [ATP, adenosine triphosphate, reference compound]",utilization as phosphate donor substrate (autophosphorylation),[16],more readily than the mutant with serine; also recorded: better able to use ATP as a substrate than is the mutant with glycine
same,KM of the mutant for ATP relative to KM of GST-XD4 for ATP,[11]; higher in mutant,more than 10 fold
same,kcat,[12],0.013 ± 0.0033 s⁻¹
same,kcat,"[13]; GST-XD4, 1 mM RR-Src, 37° C., pH 8.0",0.033 ± 0.0083 s⁻¹
"CONc1ncnc2c1ncn2[C@@H]1O[C@H](COP(=O)(O)OP(=O)(O)OP(=O)(O)O)[C@@H](O)[C@H]1O [Analog 1, N^6(methoxy)ATP]",level of protein tyrosine phosphorylation (ability to serve as cellular tyrosine kinase substrate),[4],some ability to serve as cellular tyrosine kinase substrates
